This is an account of results in patent US6579868B1, “Purine derivatives and adenosine A2 receptor antagonists serving as preventives/remedies for diabetes” (Eisai Co., Ltd., priority 1998, dated 2003).

Structures are written as SMILES. Structures can show the parent of a compound that is named as a salt.

In data set [1] the target is T1, Human adenosine A1 receptor (Homo sapiens, UniProt P30542).
T1 construct: expressed in transfected cells; host or cells: CHOK1 cells (membrane specimen)
T1 sequence (P30542 1-326): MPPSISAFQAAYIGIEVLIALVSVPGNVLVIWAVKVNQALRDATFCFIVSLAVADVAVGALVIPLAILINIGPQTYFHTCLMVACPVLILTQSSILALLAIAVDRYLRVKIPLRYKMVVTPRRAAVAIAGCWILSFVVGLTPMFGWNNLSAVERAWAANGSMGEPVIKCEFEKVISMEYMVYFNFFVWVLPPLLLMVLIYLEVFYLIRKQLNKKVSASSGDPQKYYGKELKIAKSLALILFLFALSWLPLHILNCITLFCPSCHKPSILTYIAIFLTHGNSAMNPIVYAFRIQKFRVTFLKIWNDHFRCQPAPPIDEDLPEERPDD
As to the kind of experiment: Adenosine A1 receptor binding experiment (3H-CCPA). The settings on record: human A1 receptor expressed in CHOK1 membranes. As for the experimental part: Human adenosine A1 receptor cDNA was subjected to an over-expression in CHOK1 cells and its membrane specimen was suspended in an incubation buffer (20 mM HEPES, 10 mM MgCl2 and 100 mM NaCl; pH 7.4) to make the concentration 66.7 μg/ml. To 0.45 ml of this membrane specimen were added 0.025 ml of tritium-labeled chlorocyclopentyl adenosine (60 nM ^3H-CCPA; 30 Ci/mmol) and 0.025 ml of the compound to be tested. The solution of the compound to be tested was prepared in such a manner that, firstly, the compound was dissolved in DMSO to make 20 mM concentration and then successively diluted each 10-fold using an incubation buffer. The mixture was allowed to stand at 30° C. for 120 minutes, subjected to a quick suction on a glass fiber filter (GF/B; manufactured by Whatman) and immediately washed with 5 ml of ice-cooled 50mM Tris-HCl buffer twice. After that, the glass fiber filter was transferred to a vial bottle, a scintillator was added and the radioactivity on the filter was measured by a liquid scintillation counter. Calculation of the inhibition rate of the test compound to the receptor bond (^3H-CCPA) was carried out by the following expression and, based upon that, IC50 was calculated.
Inhibition Rate (%)=[1−{(Binding amount in the presence of drug-Non-specific binding amount)/(Total binding amount-Non-specific binding amount)}]×100
Total binding amount is a ^3H-CCPA binding radioactivity in the absence of the test compound.
Non-specific binding amount is a ^3H-CCPA binding radioactivity in the presence of 100 μM of RPIA.
Binding amount in the presence of drug is a ^3H-CCPA binding radioactivity in the presence of the test compound of various concentrations.
The inhibition constant (Ki value) in Table was calculated from Cheng-Prusoff's expression.

The test system of data set [2] is Hepatic cells of primary culture of rats. As to the kind of experiment: Suppressing action to NECA-stimulated saccharogenesis (glucose release) in primary cultured rat hepatic cells. Type of data set: cell-based. The settings on record: 0.1 μM NECA, 1 h incubation, glucose released into medium. As to the method: Hepatic cells were separated by a collagenase perfusion method from liver of male rats of Wistar strain and subjected to a primary culture in a William's Medium E containing 5% of calf serum, 10^−6 M of insulin, 10^−7 M of dexamethasone and 30 ng/ml of pertussal toxin. After one day, the hepatic cells were washed with a Krebs-Ringer Bicarbonate buffer (pH 7.4 (KRB)) containing 10 mM of HEPES and 0.1% of bovine serum albumin and incubated with KRB at 37° C. After 30 minutes, 0.1 μM of NECA (N-ethylcarboxamide adenosine) and a test compound were added thereto at the same time, the mixture was incubated for additional one hour and the amount of glucose released into an incubation medium was measured.

Data set [3] concerns spontaneous diabetic mice (KK-A^y/Ta Jcl). As to the kind of experiment: Action to hyperglycemia of spontaneous diabetic mice (KK-A^y/Ta Jcl), single oral administration. Type of data set: in vivo, mouse. The following applies: 5 h. As for the experimental part: Animals: Five male KK-A^y/Ta Jcl mice for each group (purchased from Nippon Clair)
Preparation and Administration of Test Compound: A test compound in a dose as shown in Table 2 was suspended in a 0.5% aqueous solution of methyl cellulose and was orally administered in a dose of 10 ml/kg.
Collection of Blood Samples and Determination of Blood Sugar: Blood was collected from tail vein immediately before administration of the test compound and also five hours after the administration and blood sugar was determined.
Method: Tail vein of a mouse was injured by a razor without an anesthetization to bleed slightly. The blood (15 μl) was collected and immediately mixed with 135 μl of a 0.6 M perchloric acid. Glucose in the supernatant obtained by a centrifugal separation (at 1500 g for 10 minutes at 4° C. using a cooling centrifuge GS-6KR of Beckmann) was determined by a Glucose CII Test Wako (Wako Pure Chemicals).
The result is shown in terms of “(% ratio of the blood sugar after 5 hours from the administration to the blood sugar before the administration)±(standard error)”. The data were subjected to a one-way layout analysis of variance and then subjected to a multiple comparison of a Dunnett type. The case where p<0.05 was judged to be that a significant difference was available.
Animals: Five male KK-A^y/Ta Jcl mice for each group (introduced from Nippon Clair)
Preparation and Administration of Test Compound: A test compound in a dose shown in Table 6 was suspended in a 0.5% aqueous solution of methyl cellulose and was orally administered in a dose of 10 ml/kg.
Method: Tail vein of mouse was injured by a razor without an anesthetization to bleed slightly. The blood (15 μl) was collected and immediately mixed with 135 μl of a 0.6 M perchloric acid. Glucose in the supernatant obtained by a centrifugal separation (at 1500 g for 10 minutes at 4° C. using a cooling centrifuge GS-6KR of Beckmann) was determined by a Glucose CII Test Wako (Wako Pure Chemicals).
The result is shown in terms of “(% ratio of the blood sugar after 5 hours from the administration to the blood sugar before the administration)±(standard error)”. The data were subjected to a one-way layout analysis of variance and then subjected to a multiple comparison of Dunnett type. The case where p<0.05 was judged that a significant difference was available.

Consider `CCn1c(=O)c2c(nc(/C=C/c3ccc(OC)c(OC)c3)n2C)n(CC)c1=O`, for which the Ki in data set [1] is over 10000 nM.

On to `CN(C)c1ccc(-n2c(-c3cccc(F)c3)nc3c(N)nc(C#CC4(O)CCCCC4)nc32)cc1` [Example 3, 1-{2-[6-Amino-9-[4-(dimetylamino)phenyl]-8-(3-fluorophenyl)-9H-2-purinyl]-1-ethynyl}-1-cyclohexanol Dihydrochloride], for which the IC50 in data set [2] amounted to 130 nM.

As for `CCn1c(-c2cccc(F)c2)nc2c(N)nc(C#CC3(O)CCC3)nc21.Cl` [Example 8, 1-{2-[6-Amino-9-ethyl-8-(3-fluorophenyl)-9H-2-purinyl]-1-ethynyl}-1-cyclobutanol Hydrochloride], the melting point lay within 160 to 163 °C. The “% ratio of the blood sugar after 5 hours from the administration to the blood sugar before the administration ± standard error” value in data set [3] (Table 2-1, 10 mg/kg oral, solvent group 72.4 ± 4.4) worked out at 47.8 ± 4.8%. The IC50 in data set [2] was found to be 490 nM.

For the compound `Cn1c(-c2cccc(F)c2)nc2c(N)nc(C#CC3(O)CCCC3)nc21` [Example 19, 1-{2-[6-Amino-8-(3-fluorophenyl)-9-methyl-9H-2-purinyl]-1-ethynyl}-1-cyclopentanol Sulfate], the IC50 in data set [2] is 470 nM.

Take `Cn1c(-c2cccc(F)c2)nc2c(N)nc(C#CC3(O)CCCCC3)nc21` [Example 31, 1-{2-[6-Amino-8-(3-fluorophenyl)-9-methyl-9H-2-purinyl]1-ethynyl}-1-cyclohexanol Hydrochloride]: the IC50 in data set [2] came to 130 nM.

`Cn1c(-c2cccc(F)c2)nc2c(N)nc(C#CC(C)(C)O)nc21` [Example 64 (sulfate), Hydrochloride]: the IC50 in data set [2] worked out at 730 nM.

For `Cl.Cn1c(-c2cccc(F)c2)nc2c(N)nc(C#CC(C)(C)O)nc21` [Example 64, 4-[6-Amino-8-(3-fluorophenyl)-9-methyl-9H-2-purinyl]-2-methyl-3-butyn-2-ol Hydrochloride], the “% ratio of the blood sugar after 5 hours from the administration to the blood sugar before the administration ± standard error” value in data set [3] (Table 2-2, 10 mg/kg oral, solvent group 67.6 ± 2.4) is listed as 42.3 ± 4.8%.

As for `Cl.Cn1c(-c2cccc(F)c2)nc2c(N)nc(C#CC3(O)CCC3)nc21` [Example 89, 1-{2-[6-Amino-8-(3-fluorophenyl)-9-methyl-9H-2-purinyl]-1-ethynyl}-1-cyclobutanol Hydrochloride], the melting point was in the range of 198 to 199 °C. For the same compound, the “% ratio of the blood sugar after 5 hours from the administration to the blood sugar before the administration ± standard error” value in data set [3] (Table 2-2, 30 mg/kg oral, solvent group 67.6 ± 2.4) is listed as 38.3 ± 4.4%. For the same compound, the IC50 in data set [2] stood at 430 nM.

Take `CCn1c(-c2cccc(F)c2)nc2c(N)nc(C#CC3(O)CCCC3)nc21.Cl` [Example 133, 1-{2-[6-Amino-9-ethyl-8-(3-fluorophenyl)-9H-2-purinyl]-1-ethynyl}-1-cyclopentanol Hydrochloride]: the melting point was in the range of 188 to 191 °C. Also, in data set [2], the half-maximal inhibitory concentration (IC50) was 200 nM.

The compound `CCC(O)(C#Cc1nc(N)c2nc(-c3ccccc3F)n(C)c2n1)CC` [Example 149] displayed a melting point of 199 to 201 °C.

Turning to `Cn1c(-c2ccccc2F)nc2c(N)nc(C#CC(C)(C)O)nc21` [Example 156, 4-[6-Amino-8-(2-fluorophenyl)-9-methyl-9H-2-purinyl]-2-methyl-3-butyn-2-ol], the melting point is 198 to 199 °C.

Compound `CCCn1c(-c2cccc(F)c2)nc2c(N)nc(C#CC3(O)CCCC3)nc21.Cl` [Example 169, 1-{2-[6-Amino-8-(3-fluorophenyl)-9-propyl-9H-2-purinyl]-1-ethynyl}-1-cyclopentanol Hydrochloride] came in with a melting point of 198 to 200 °C. Besides, the IC50 in data set [2] came out at 480 nM.

Compound `CCCn1c(-c2cccc(F)c2)nc2c(N)nc(C#CC3(O)CCC3)nc21.Cl` [Example 170, 1-{2-[6-Amino-8-(3-fluorophenyl)-9-propyl-9H-2-purinyl]-1-ethynyl}-1-cyclobutanol Hydrochloride] gave a melting point of 144 to 146 °C. In addition, the IC50 in data set [2] turned out to be 500 nM.

`CCCn1c(-c2cccc(F)c2)nc2c(N)nc(C#CC(C)(C)O)nc21.Cl` [Example 171, 4-[6-Amino-8-(3-fluorophenyl)-9-propyl-9H-2-purinyl]-2-methyl-3-butyn-2-ol Hydrochloride] yielded a melting point of 167 to 168 °C. In addition, in data set [2], the half-maximal inhibitory concentration (IC50) came out at 1010 nM.

Take `Cl.Cn1c(-c2cccc(F)c2)nc2c(N)nc(/C=C/C3(O)CCCC3)nc21` [Example 208, 1-[(E)-2-[6-Amino-8-(3-fluorophenyl)-9-methyl-9H-2-purinyl]-1-ethenyl]-1-cyclopentanol Hydrochloride]: the melting point was over 290 °C. The IC50 in data set [2] was 270 nM.

For `CCn1c(-c2cccc(F)c2)nc2c(N)nc(/C=C/C(C)(C)O)nc21.Cl` [Example 210, (E)-4-[6-Amino-9-ethyl-8-(3-fluorophenyl)-9H-2-purinyl]-2-methyl-3-buten-2-ol Hydrochloride], in data set [3] (Table 2-3, 10 mg/kg oral, solvent group 70.7 ± 4.6), the “% ratio of the blood sugar after 5 hours from the administration to the blood sugar before the administration ± standard error” value is on record as 51.5 ± 4.6%. For the same compound, the IC50 in data set [2] stood at 520 nM.

Turning to `Cl.Cn1c(-c2cccc(F)c2)nc2c(N)nc(/C=C/C3(O)CCC3)nc21` [Example 215, 1-[(E)-[6-Amino-8-(3-fluorophenyl)-9-methyl-9H-2-purinyl]-1-ethenyl]-1-cyclobutanol Hydrochloride], the melting point fell in the range of 181 to 184 °C. Also, the half-inhibitory concentration (IC50) in data set [2] was determined as 220 nM.

For `CCn1c(-c2cccc(F)c2)nc2c(N)nc(CCC(O)(CC)CC)nc21` [Example 235, 1-[6-Amino-9-ethyl-8-(3-fluorophenyl)-9-2-purinyl]-3-ethyl]-3-pentanol Hydrochloride], the IC50 in data set [2] amounted to 1270 nM.

`Cn1c(-c2cccc(F)c2)nc2c(N)nc(C#CC3(O)CCCC3)nc21` [drawing 260] yielded a Ki in data set [1] of 19 nM.

With `CCCn1c(=O)c2c(nc(/C=C/c3ccc(OC)c(OC)c3)n2C)n(CCC)c1=O` [drawing 263], the Ki in data set [1] was over 10000 nM.

The term Ki denotes a dissociation constant, usually derived from enzyme kinetics or from competition with a known ligand. Read a low Ki as higher affinity. The IC50 is the concentration that inhibits the measured activity by half. The term melting point denotes the temperature of the solid-liquid transition.
